# Tests used:
# cataleptic rat = test: Reversal of catalepsy in rats (oral ED50); format: in vivo; details: result in words
# Procedure: Extrapyramidal motor side effects in e.g. rodents are measured by the ability of a drug to induce catalepsy. Catalepsy is defined as a state where an animal continues to remain in an unnormal (nonphysiological ‘uncomfortable’) posture for a long time (e.g.: M. E. Stanley and S. D. Glick, Neuropharmacology, 1996; 15: 393-394; C. J. E. Niemegeers and P. Janssen, Life Sci., 1979, […]). For example, if a hindpaw of a rat is placed on an elevated level, e.g. a platform elevated 3 cm above ground level, a normal rat immediately withdraws the hindpaw from the platform to the ground level. A cataleptic rat remains in this unnatural posture even for minutes.
# [1] = test system: Parkinsonian cynomolgus monkey; test: MPTP Parkinsonian cynomolgus monkey chronically treated with l-dopa (Abnormal Involuntary Movement Scale, rating for psychotic states); format: in vivo; details: MPTP monkeys, long-term l-dopa
# Procedure: Treatment of adverse effects of conventional anti-Parkinsonian drugs as defined above are determined in a modification of the animal model of the Parkinsonian cynomolgus monkey according to P. J. Blanchet et al., Exp. Neurology 1998; 153: 214-222. Monkeys render parkinsonian by repeated injections of 1-methyl-4-phenyl-1,2,3,6-tetrahydropyridine (MPTP). The Parkinsonian monkeys are chronically treated with the standard l-dopa therapy according to P. J. Blanchet et al., Mov. Disord., 1998; 13: 798-802. Longterm treatment with l-dopa induces extrapyramidal motor side effects and psychotic states which are both qualitatively and quantitatively, assessed by the Abnormal Involuntary Movement Scale (P. J. Blanchet et al., Mov. Disord. 1998; 13: 798-802) for different body parts (face, neck, trunk, each limb) and by rating for psychotic states by observing the monkey's attention, reactivity and mobility. (−)-(R)-2-{4-[[3,4-dihydro-2H-benzopyran-2-yl)-methyl]amino]butyl}-1,2-benzoisothiazol-3-(2H)-on-1,1-dioxide reduced overall choreiform dyskinesias and dystonic dyskinesias as well as psychotic states.
# [2] = test system: rat with nigrostriatal degeneration; test: Striatonigral degeneration in the rat (6-hydroxydopamine plus quinolinic acid), turning behavior; format: in vivo; details: automated recorder
# Excerpt: Another more recent animal model is the striatonigral degeneration approach in the rat according to G. K. Wenning et al., J. Neural Transm. Suppl., 1999; 55: 103-113. Rats receive an unilateral injection of 6-hydroxydopamine into the left medial forebrain bundle followed by an injection of quinolinic acid into the ipsilateral striatum inducing nigrostriatal degeneration. The degeneration results in turning behavior to a challenge with dopaminomimetics such as apomorphine or amphetamine. Turning behavior is measured by an automated recorder.
# [3] = test system: patients with Huntington's disease; test: Add-on trial in patients with Huntington's disease (AIMS, UHDRS); format: in vivo, human; details: 2.5 to 20 mg b.i.d., typical trial
# Procedure: A typical trial to establish the effect of the compounds according to the invention on chorea, voluntary motor performance, and functional disability in patients with Huntington's disease encompasses 32 genetically diagnosed patients. (−)-(R)-2-{4-[[3,4-dihydro-2H-benzopyran-2-yl)-methyl]amino]butyl}-1,2-benzoisothiazol-3-(2H)-on-1,1-dioxide monohydrochloride or placebo is administered as “add on” to the conventional treatment, which is maintained unchanged during the whole study. The dose of blinded medication is titrated over a period of 3 weeks in a range from 2.5 to 20 mg b.i.d. Then the medication is held constant for 1 week. Assessments are performed in the week before and at the last day of the trial. Chorea is scored using the abnormal involuntary movement scale (AIMS, W. Guy, in: ECDEU assessment manual. Rockville Md: US dept. of health, education and welfare, 1976: 534-537), the unified Huntington's disease rating scale (UHDRS, Huntington study group, 1996, Movement Disord, 11: 136-42), and judgement of video recordings. Voluntary motor performance is assessed using the UHDRS motor scale. Patients and their partners complete a questionnaire regarding functional disability.
# [4] = test system: rats challenged with haloperidol; test: Neuroleptics-induced muscle rigidity in rats (haloperidol); format: in vivo, rat; details: resistance to passive flexion and extension of the hind limb
# Excerpt: A typical animal model is neuroleptics-induced muscle rigidity in rats according to S. Wolfarth et al., Arch. Pharmacol. 1992; 345: 209-212. Rats are challenged with the conventional neuroleptic drug haloperidol which enhances muscle tone. Muscle tone is electromechanically measured as the resistence to passive flexion and extension of the hind limb. (−)-(R)-2-{4-[[3,4-dihydro-2H-benzopyran-2-yl)-methyl]amino]butyl}-1,2-benzoisothiazol-3-(2H)-on-1,1-dioxide or a pharmaceutically acceptable salt thereof decreased the muscle tone enhanced by haloperidol.
# [5] = test system: neuroleptics sensitized monkey; test: Neuroleptics sensitized monkey, haloperidol challenge; format: in vivo; details: after haloperidol challenge, scoring system
# Excerpt: Another typical animal model is the neuroleptics sensitized monkey according to D. E. Casey, Psychopharmacology, 1996; 124: 134-140. Monkeys treated repeatedly with conventional neuroleptics are highly sensitive to a subsequent challenge dose of neuroleptic drugs. When challenged, the monkeys immediately show extrapyramidal motor side effects such as dystonia, dyskinesias, akathisia, and bradykinesia which are rated by a scoring system. The conventional neuroleptic drug haloperidol is given as a challenge.
# Pietrain pig = test: Campus Syndrome in the Pietrain pig, tremor; format: in vivo; details: when standing and during locomotion
# Excerpt: Typical genetic models in mutant animals are the Campus Syndrome in the Pietrain pig according to A. Richter et al. (Exp. Neurology, 1995; 134: 205-213) or the Weaver mutant mouse according to J. R. Simon and B. Ghetti (Mol. Neurobiol., 1994; 9: 183-189). In the Campus Syndrome model, these mutant pigs show a high-frequency tremor when standing and during locomotion, but not while lying at rest. Assessment of tremor is made by accelerometric recording. In the Weaver mutant mouse, degenerative cerebellar atrophy is found in association with tremor, gait instability, and toppling over the sides after a few steps.
# [6] = test system: oxotremorine-induced tremor; test: Oxotremorine-induced tremor (rating scale); format: in vivo
# Procedure: A typical animal model for drug-induced tremors is the oxotremorine-induced tremor (e.g. H. Hallberg and O. Almgren, Acta Physiol. Scand., 1987; 129: 407-13; J. G. Clement and W. R. Dyck, J. Pharmacol. Meth., 1989; 22: 25-36). Oxotremorine induces tremor which is measured by a rating scale. (−)-(R)-2-{4-[[3,4-dihydro-2H-benzopyran-2-yl)-methyl]amino]butyl}-1,2-benzoisothiazol-3-(2H)-on-1,1-dioxide or one of its pharmaceutically acceptable salt inhibit oxotremorine-induced tremors.
# [7] = test system: rats with posthypoxic myoclonus; test: Posthypoxic myoclonus in rats after cardiac arrest; format: in vivo, rat; details: after 8 minutes cardiac arrest
# Procedure: A typical animal model for myoclonus is myoclonus induced by an acute hypoxic episode according to D. D. Truong et al., Mov. Dsiord., 1994; 9: 201-206). In this model of posthypoxic myoclonus, rats undergo a cardiac arrest for 8 minutes and are resuscitated thereafter. Myoclonic jerks occur spontaneously but can be provoked by auditory stimulation, too, worsening over the days following cardiac arrest.
# [8] = Abnormal Involuntary Movement Scale
smiles,measurement,setting,value
"O=C1c2ccccc2S(=O)(=O)N1CCCCNC[C@H]1CCc2ccccc2O1 [(−)-(R)-2-{4-[[3,4-dihydro-2H-benzopyran-2-yl)-methyl]amino]butyl}-1,2-benzoisothiazol-3-(2H)-on-1,1-dioxide]",potency in reversing catalepsy,cataleptic rat,extraordinary potency in reversing catalepsy
same,dystonic dyskinesias,[1]; [8],reduced
same,overall choreiform dyskinesias,[1]; [8],reduced
same,psychotic states,"[1]; rating of attention, reactivity and mobility",reduced
same,turning behavior induced by amphetamine,[2],dose-dependently antagonized
same,turning behavior induced by apomorphine,[2],dose-dependently antagonized
same,involuntary motor performance,"[3]; AIMS, UHDRS, video",significant improvement
same,voluntary motor performance,[3]; UHDRS motor scale,significant improvement
same,muscle tone enhanced by haloperidol,[4],decreased
same,"extrapyramidal motor side effects (dystonia, dyskinesias, akathisia, bradykinesia)",[5],dose-dependently reduce
same,Campus Syndrome tremor,Pietrain pig,reduced disabling tremor when standing and during locomotion
same,oxotremorine-induced tremors,[6],inhibit
same,number of auditory-evoked myoclonic jerks,[7],dose-dependently reduce
same,number of spontaneous myoclonic jerks,[7],dose-dependently reduce
